In the NIST ThermoML archive (doi:10.1016/j.jct.2007.05.004):

Assays:
[1] = 101 kPa, Liquid
[2] = xn = mol fraction of the nth substance listed; conditions: 101 kPa, Liquid

CCO [ethanol]
[1]
Conditions	mass density [kg/m3]	viscosity [mPa·s]
293.15 K	789.75	1.187
298.15 K	785.46	1.082
303.15 K	781.15	0.987

CCOC(C)=O [ethyl acetate]
[1]
Conditions	mass density [kg/m3]	viscosity [mPa·s]
293.15 K	900.52	0.452
298.15 K	894.43	0.426
303.15 K	888.3	0.403

CO [methanol]
[1]
Conditions	mass density [kg/m3]	viscosity [mPa·s]
293.15 K	791.9	0.585
298.15 K	787.2	0.545
303.15 K	782.48	0.508

COC(C)=O [methyl ethanoate]
[1]
Conditions	mass density [kg/m3]	viscosity [mPa·s]
293.15 K	933.56	0.386
298.15 K	926.98	0.367
303.15 K	920.34	0.348

COC(C)=O [methyl ethanoate] + CCO
[2]
Conditions	mass density, 293.15 K [kg/m3]	mass density, 298.15 K [kg/m3]	mass density, 303.15 K [kg/m3]	viscosity, 293.15 K [mPa·s]	viscosity, 298.15 K [mPa·s]	viscosity, 303.15 K [mPa·s]
x2 = 0	933.56	926.98	920.34	0.386	0.367	0.348
x2 = 0.0493	927.83	921.31	914.73	0.383	0.363	0.345
x2 = 0.0987	922	915.54	909.02	0.389	0.365	0.347
x2 = 0.1998	909.85	903.54	897.15	0.398	0.377	0.359
x2 = 0.3006	897.16	891	884.79	0.419	0.395	0.374
x2 = 0.3973	884.52	878.56	872.54	0.444	0.418	0.394
x2 = 0.4863	872.35	866.59	860.77	0.477	0.449	0.422
x2 = 0.6031	855.48	849.99	844.45	0.54	0.505	0.473
x2 = 0.6972	841.15	835.91	830.62	0.615	0.572	0.537
x2 = 0.7986	824.84	819.89	814.9	0.735	0.684	0.64
x2 = 0.9009	807.47	802.85	798.18	0.903	0.838	0.768
x2 = 0.951	798.76	794.3	789.81	1.032	0.945	0.868

COC(C)=O [methyl ethanoate] + CO
[2]
Conditions	mass density, 293.15 K [kg/m3]	mass density, 298.15 K [kg/m3]	mass density, 303.15 K [kg/m3]	viscosity, 293.15 K [mPa·s]	viscosity, 298.15 K [mPa·s]	viscosity, 303.15 K [mPa·s]
x2 = 0	933.56	926.98	920.34	0.386	0.367	0.348
x2 = 0.0471	930.26	923.71	917.1	0.378	0.359	0.341
x2 = 0.0982	926.48	919.95	913.37	0.378	0.361	0.342
x2 = 0.1983	918.39	911.96	905.46	0.379	0.366	0.348
x2 = 0.2912	909.97	903.65	897.26	0.382	0.364	0.347
x2 = 0.4015	898.52	892.35	886.12	0.394	0.37	0.351
x2 = 0.5006	886.79	880.78	874.71	0.404	0.382	0.36
x2 = 0.5878	875.07	869.25	863.35	0.416	0.392	0.371
x2 = 0.7017	857.33	851.73	846.09	0.442	0.416	0.393
x2 = 0.8015	838.91	833.57	828.19	0.472	0.443	0.417
x2 = 0.9008	817.51	812.45	807.37	0.521	0.486	0.455
x2 = 0.9504	805.16	800.29	795.38	0.551	0.516	0.483

O [water] + CCO
[2], x1 = 1
Conditions	viscosity [mPa·s]
293.15 K	1.002
298.15 K	0.89
303.15 K	0.797

O [water] + CO
[2], x1 = 1
Conditions	viscosity [mPa·s]
293.15 K	1.003
298.15 K	0.89
303.15 K	0.797
